Source: US11597720B2, “Tetrahydronaphthalene and tetrahydroisoquinoline derivatives as estrogen receptor degraders” (Arvinas Operations, Inc., priority 2016, dated 2023)

How the values were obtained:
[1] = biological target: T1, Estrogen receptor-alpha (ERα) (Homo sapiens, UniProt P03372); assay: ERα degradation in T47D cells, western blot; assay type: cell-based; design: except that T47D cells were utilized instead of the MCF7 cells; endogenous in cells; host or cells: T47D cells; settings: 7 concentrations 100 nM to 0.1 nM, 10% FBS, 72 hours
T1 sequence (P03372 1-595): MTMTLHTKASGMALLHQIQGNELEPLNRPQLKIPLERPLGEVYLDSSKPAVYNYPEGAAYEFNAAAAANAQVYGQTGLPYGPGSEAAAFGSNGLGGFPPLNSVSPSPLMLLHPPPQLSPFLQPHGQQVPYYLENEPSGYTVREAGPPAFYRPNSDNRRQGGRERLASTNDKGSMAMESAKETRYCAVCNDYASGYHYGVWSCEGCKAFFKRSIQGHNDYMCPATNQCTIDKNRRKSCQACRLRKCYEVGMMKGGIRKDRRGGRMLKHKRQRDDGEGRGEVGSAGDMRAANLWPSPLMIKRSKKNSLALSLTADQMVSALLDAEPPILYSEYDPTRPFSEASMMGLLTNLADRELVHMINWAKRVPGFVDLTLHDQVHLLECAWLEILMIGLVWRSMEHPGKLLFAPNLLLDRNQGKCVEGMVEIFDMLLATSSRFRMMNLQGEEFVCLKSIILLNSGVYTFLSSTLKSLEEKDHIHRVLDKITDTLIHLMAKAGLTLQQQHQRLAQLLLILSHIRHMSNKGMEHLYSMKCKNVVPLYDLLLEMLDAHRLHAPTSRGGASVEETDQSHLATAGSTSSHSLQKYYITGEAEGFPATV
Method: Compounds prepared in this application were also analyzed for their ability to degrade ERα in MCF7 and T47D cells.
Estrogen receptor-alpha (ERα) degradation assay in T47D cells using western blot method. The same protocol that was described above with MCF7 cells was utilized, except that T47D cells were utilized instead of the MCF7 cells.

[2] = biological target: T1, Estrogen receptor-alpha (ERα); assay: ERα degradation in MCF-7 cells, western blot; assay type: cell-based; design: assessed for their activity in degrading ERα in MCF-7 cells via western blot; endogenous in cells; host or cells: MCF7 cells; settings: 10% FBS; for Degradation of ERα in MCF7 cells (immunoblot, FIG. 2): 7 concentrations 100 nM to 0.1 nM, 48 hours
Method: FIG. 2 and FIG. 3 illustrate represent exemplary compounds from the western blot assay.
Estrogen receptor-alpha (ERα) degradation assay in MCF-7 cells using western blot method. The exemplary novel ERα degraders were assessed for their activity in degrading ERα in MCF-7 cells via western blot. The assay was carried out in the presence of 10% […] bovine serum (FBS) or high percentage of human or mouse serum.
MCF7 cells were grown in DMEM/F12 with 10% fetal bovine serum and seeded at 24,000 cells per well in 100 μl into 96-well clear tissue culture plates. The following day, the cells were treated with PROTACs in a 7-point concentration curve with 100 nM being the top concentration and serial dilutions to make the other concentrations (30 nM, 10 nM, 3 nM, 1 nM, and 0.3 nM). At all concentrations, 0.01% DMS is the final concentration in the well. […], washed with 50 μl of cold P1BS, The cells are lysed with 50 μl/well 4° (Cell Lysis Buffer (Catalog #9803; Cell Signaling Technology, Danvers, Mass.) (20 mM Tris-HCL (pH 7.5), 150 mM NaCl, 1 mM Na2EDTA, 1 mM EGTA, 1% Triton, 2.5 mM sodium pyrophosphate, 1 mM B-glycerophosphate, 1 mM sodium vanadate, 1 ug/ml leupeptin). Lysates were clarified at 16,000×g for 10 minutes, and 2 μg of protein was subjected to SDS-PAGE analysis and followed by immunoblotting according to standard protocols. The antibodies used were ERα (Cell Signaling Technologies Catalog #8644), and Tubulin (Sigma Catalog #T9026; St Louis, Mo.). Detection reagents were Clarity Western ECL substrate (Bio-Rad Catalog #170-5060; Hercules, Calif.).
Alternatively, MCF7 cells were grown in DMEM/F12 with 10% fetal bovine serum and seeded at 24,000 cells per well in 500 μl in 24-well clear tissue culture plates. The following day, the cells were treated with PROTACs in a 5-point concentration curve (100 nM, 33 nM, 11 nM, 3.7 nM, and 1.2 nM) in the presence of 0.01% DMSO, After 72 hours, the wells are aspirated and washed with 500 μl of PBS. The cells are lysed with 100 μl/well 4° C. […]

SMILES: Cc1ncsc1-c1ccc(CNC(=O)[C@@H]2C[C@@H](O)CN2C(=O)[C@@H](NC(=O)COCCN2CCN(CCOc3ccc([C@@H]4c5ccc(O)cc5CC[C@@H]4c4ccccc4)cc3)CC2)C(C)(C)C)cc1 [Example 1, (2S,4R)-4-hydroxy-1-[(2S)-2-(2-{2-[4-(2-{4-[(1R,2S)-6-hydroxy-2-phenyl-1,2,3,4-tetrahydronaphthalen-1-yl]phenoxy}ethyl)piperazin-1-yl]ethoxy}acetamido)-3,3-dimethylbutanoyl]-N-{[4-(4-methyl-1,3-thiazol-5-yl)phenyl]methyl}pyrrolidine-2-carboxamide]
- Degradation of ERα in T47D cells (immunoblot, FIG. 4) [1]: Degradation of ERα
- Degradation of ERα in MCF7 cells (immunoblot, FIG. 2) [2]: Degradation of ERα

SMILES: O=C1CCC(N2Cc3cc(N4CCN(CCCCCOc5ccc([C@@H]6c7ccc(O)cc7CC[C@@H]6c6ccccc6)cc5)CC4)ccc3C2=O)C(=O)N1 (stereo partly drawn) [Example 62, 3-{5-[4-(5-{4-[(1R,2S)-6-hydroxy-2-phenyl-1,2,3,4-tetrahydronaphthalen-1-yl]phenoxy}pentyl)piperazin-1-yl]-1-oxo-2,3-dihydro-1H-isoindol-2-yl}piperidine-2,6-dione]
- Degradation of ERα in T47D cells (immunoblot, FIG. 4) [1]: Degradation of ERα
- Degradation of ERα in MCF7 cells (immunoblot, FIG. 2) [2]: Degradation of ERα

SMILES: O=C1CCC(N2Cc3cc(N4CCN(CC5CCN(c6ccc([C@@H]7c8ccc(O)cc8CC[C@@H]7c7ccccc7)cc6)CC5)CC4)ccc3C2=O)C(=O)N1 (stereo partly drawn) [Example 341, 3-[5-[4-[[1-[4-[(1R, 2S)-6-hydroxy-2-phenyl-tetralin-1-yl]phenyl]-4-piperidyl]methyl]piperazin-1-yl]-1-oxo-isoindolin-2-yl]piperidine-2,6-dione]
- Degradation of ERα in MCF7 cells (immunoblot, FIG. 3) ([2]; 5 concentrations 100 nM to 1.2 nM, 72 hours): Degradation of ERα
